Test results published in US9597297B2, “Combination of pilocarpin and methimazol for treating Charcot-Marietooth disease and related disorders” (PHARNEXT, priority 2008, dated 2017).

How the values were obtained:
[1] = test system: PMP22 mRNA; experiment: PMP22 mRNA level by RT-Q-PCR in RT4-D6P2T schwannoma cells; assay type: cell-based, rat; settings: 8 hrs, Methimazole 0.1 nm, Pilocarpine 0.001 nm, alone or combined
Method: Rat schwannoma RT4-D6-P2T cell line (ATCC #CRL2468™) is defrosted in DMEM (ATCC #30-2002) and 10% FCS (invitrogen #10106). The cells are maintained at 37° C. in a humidified incubator, in an atmosphere of air (95%.)—CO2 (5%). At passage n°4, cells are dissociated by trypsinization (+1 ml of Trypsin-EDTA, 0.25%-0.53 mM; Invitrogen) 5 to 15 min at 37° C. The reaction is stopped by addition of DMEM containing 10% of foetal bovine serum (FBS). […] are counted in a Neubauer cytometer using the trypan blue exclusion test (Sigma). The suspension is triturated with a 10 ml pipette and the cells are then centrifuged at 350×g for 10 min at room temperature. […]
Quantitative RT-PCR is used to compare the levels of PMP22 mRNA after drug stimulation, relative with housekeeping RPS9 mRNA in RT4-D6P2T cell line.
8 hrs after drug incubation, cells are rinsed with cold sterilized PBS, total RNAs from each cell sample are extracted and purified from SC using the Qiagen RNeasy micro kit (Qiagen #74004). Nucleic acids are quantified by Nanodrop spectrophotometer using 1 μl of RNA sample. The RNA integrity is determined through a BioAnalyzer (Agilent) apparatus. […]
In another experiment drugs (listed in Table 1) are incubated with rat schwannoma cell line during 8 hrs and PMP22 mRNA expression level was quantified by RT-Q-PCR.

[2] = Body weight of CMT rats during treatment; assay type: in vivo, rat; settings: treated group comparatively with placebo group, data not shown
Method: The animals are weighted twice a week in order to adjust the doses to growing body weight. If the osmotic pump is chosen for the treatment administration, the doses of the drug are calculated on the basis of the estimated mean body weight of the animals expected for their age over the period of the pump duration (6 weeks). The pumps are re-implanted if necessary, with the appropriated anaesthesia protocol.
Body weights, overt signs (coat appearance, body posture, tremor) of the animals are monitored throughout the experiment. The rating scale is used for recording: 0=normal, 1=abnormal.

[3] = test system: PMP22 protein; experiment: PMP22 protein expression analysis by flow cytometry (FACS) in primary rat Schwann cells; assay type: cell-based; settings: 1 μM
Method: One day later, primary Schwann cells are stimulated by drugs during 24 hrs (3 wells/condition). The preparation of each compound is performed just prior to its addition to the cell culture medium. The following PCR conditions are used: Denaturation 5 min at 95° C. followed by 10 sec at 95° C., 40 sec at 60° C. and 10 sec at 72° C. and 1 min at 40° C. (Forty amplification cycles). The relative levels of PMP22 gene expression are measured following the Ct method comparing the quantity of products generated from the target gene PMP22 and the […] 8 hrs, 24 hrs and 48 hrs after drugs incubation, supernatants of primary rat Schwann cells are recovered, centrifuged and frozen. SC are detached with trypsin-EDTA. As soon as the majority of cells are in suspension, the trypsin is neutralised using DMEM with 10% FCS. Supernatants with cells are recovered and centrifuged. […] Forward Scatter (FSC) correlated with cell volume (size) and Side Scatter (SSC) depending on inner complexity of cells (granularity) are analysed. For expression of PMP22, analysis is performed within the total cells and percent of positive cells is calculated. Positive cells are cells with fluorescence intensity higher than the control with secondary antibody.

Cn1cc[nH]c1=S [methimazole, 1-methyl-3H-imidazole-2-thione]
PMP22 mRNA level of expression [1]: no significant activity
entire body weight [2]: rather diminished

CC[C@@H]1C(=O)OC[C@@H]1Cc1cncn1C [pilocarpine, (3S,4R)-3-ethyl-4-[(3-methylimidazol-4-yl)methyl]oxolan-2-one]
decrease of PMP22 protein level of expression ([3]; 24 hrs of incubation): 38%
change of PMP22 protein level of expression ([3]; 48 hrs of incubation, p<0.001): −18%
PMP22 mRNA level of expression [1]: no significant activity
